Test results published in PMC7531601, “Exploiting Lactoferricin (17–30) as a Potential Antimicrobial and Antibiofilm Candidate Against Multi-Drug-Resistant Enteroaggregative Escherichia coli” (Frontiers in Microbiology, 2020).
Converted amounts (≈) assume the structure as drawn.

Tests used:
MDR-EAEC isolates [1] = test: In vitro antibiotic susceptibility testing of MDR-EAEC isolates; type: cell-based, enteroaggregative Escherichia coli; set-up: key to Antibiotic Susceptibility testing / MIC Values (mg/L), given as class symbol: S – Sensitive; R- Resistant; details: for MIC: Escherichia coli
Text: E. coli ATCC 25922 was used as the quality control strain for antibiotic susceptibility testing.

MDR-EAEC isolates [2] = test: In vitro time-kill kinetics; type: cell-based, enteroaggregative Escherichia coli; details: 10 μg/ml, ca. 1 × 10^7 CFU/ml, CA-MH broth, 37°C
Protocol: The in vitro dose- and time-kill kinetics was assessed by co-incubating the log-phase cultures of each of MDR-EAEC isolates (ca. 1 × 10^7 CFU/ml) in cation-adjusted Mueller Hinton (CA-MH) broth with MIC (1 × and 2 × ) of Lfcin (17–30) (Supplementary Information S6). The desired inoculum for each MDR-EAEC strain and Lfcin (17–30) suspended in CA-MH broth was as follows: Group I, 10^7 CFU of MDR-EAEC (50 μl) with 1 × MIC of Lfcin (17–30) (50 μl); Group II, 10^7 CFU of MDR-EAEC (50 μl) with 2 × MIC of Lfcin (17–30) (50 μl); Group III, 10^7 CFU of MDR-EAEC (50 μl) with 10 μg/ml of Meropenem (50 μl); and Group IV, 10^7 CFU of MDR-EAEC (50 μl) in CA-MH broth (50 μl). The MDR-EAEC counts were enumerated ([Miles et al., 1938]) at 0, 30, 60, 90, 120, 150, and 180 min, and 24, 48, and 72 h post co-incubation.
FIGURE 2 Dose- and time-dependent time-kill assay of MDR-EAEC isolates co-cultured with Lfcin (17–30). MDR-EAEC isolates (n = 3) were co-cultured with 1 × MIC of Lfcin (17–30) (A) and 2 × MIC of Lfcin (17–30) (B) in CA-MH broth at 37°C under static conditions with respective controls of MDR-EAEC isolates (untreated and meropenem-treated). Data expressed as the mean ± standard deviation (log10CFU/ml) of three independent experiments (***P < 0.001). […]

G. mellonella larvae = test: LDH cytotoxicity assay of larval haemolymph; type: in vivo, Galleria mellonella; details: infected larvae treated 3 h pi
Protocol: (§1) Galleria mellonella larvae were grouped 40 per group for in vivo antimicrobial testing of Lfcin (17–30) as follows: group I (MDR-EAEC infection control), groups II and III (infection + treatment groups), group IV (PBS control), and group V [Lfcin(17–30) control]. Optimized LD50 dose of MDR-EAEC (a cocktail of three strains) was administered to larvae of groups I to III, while MIC dose of Lfcin (17–30) and Meropenem was administered 3 h post-infection (pi) in groups II and III, respectively. Larval group IV was injected with sterile PBS, whereas MIC dose of Lfcin (17–30) was administered in group V.
The larvae were then observed for their survival rate, melanization (Supplementary Information S7), MDR-EAEC counts (Supplementary Information S8), hemocyte density (Supplementary Information S9) ([Wand et al., 2013]), lactate dehydrogenase (LDH) cytotoxicity assay (Supplementary Information S10) ([Gibreel and Upton, 2013]), and histopathology (Supplementary Information S11) ([Perdoni et al., 2014]), at an interval of 6 h till 24 h, followed by 24-h interval up to 120 h pi.
G. mellonella (n=3 larvae per group) were analysed for the production of LDH, as a marker of cell damage, at an interval of 6 h pi for 24 h, followed by 24 h interval till 96 h pi using QuantiChrom LDH cytotoxicity assay kit, according to the manufacturer’s instructions. The positive and negative controls used in this study were […]. The absorbance was read using ELISA plate reader at 500 nm; the haemolymph from untreated larvae served as background control and the cytotoxicity was calculated as, Cytotoxicity (%) = (ODSample - ODControl)/ (ODTotal Lysis - ODControl) x 100, wherein, sample is the control absorbance of treated cell; control is the experimental absorbance of the untreated cell control and total lysis is the absorbance of Triton X-100 treated cells.

[3] = system: G. mellonella larvae infected with MDR-EAEC (a cocktail of three strains); test: G. mellonella larval survival; type: in vivo, Galleria mellonella; details: larvae infected with LD50 dose (10^6 CFU) of MDR-EAEC, MIC dose 3 h pi, up to 120 h pi, 40 larvae per group
Protocol: The final instar of G. mellonella larvae was utilized for performing the in vivo assays ([Morgan et al., 2014]). The larvae (ca. 200–250 mg) inoculated with aliquots of MDR-EAEC suspensions (10 μl) by injection using Hamilton syringe (26 gauge) via the last right pro-leg were incubated at 37°C and the observations were noted. The larvae kept in a sterile environment were provided with ad lib food during the experiment.
The determined LD50 dose for each MDR-EAEC strain in the larvae was validated and employed further in the in vivo experiments to evaluate the antibacterial efficacy of Lfcin (17–30).
as §1, with “V. […]” for “V.”

`C[C@@H](O)[C@H]1C(=O)N2C(C(=O)O)=C(SCCN=CN)C[C@H]12` [IMI, Imipenem] was tested, and the “Antibiotic Susceptibility testing” value (MDR-EAEC isolates [1]; KY941936.1 (MDR 1)) was “S”, the “MIC Values (mg/L), given as class symbol” value (MDR-EAEC isolates [1]; KY941936.1 (MDR 1)) was “S” and the “Antibiotic Susceptibility testing” value (MDR-EAEC isolates [1]; KY941937.1 (MDR 2)) was “S”. The “MIC Values (mg/L), given as class symbol” value (MDR-EAEC isolates [1]; KY941937.1 (MDR 2)) was “S”, the “Antibiotic Susceptibility testing” value (MDR-EAEC isolates [1]; KY941938.1 (MDR 3)) was “S” and the “MIC Values (mg/L), given as class symbol” value (MDR-EAEC isolates [1]; KY941938.1 (MDR 3)) was “S”.

With `Cc1cc(NS(=O)(=O)c2ccc(N)cc2)no1` [SXT, Sulfamethoxazole] the “Antibiotic Susceptibility testing” value (MDR-EAEC isolates [1]; KY941936.1 (MDR 1)) was “R”, the “Antibiotic Susceptibility testing” value (MDR-EAEC isolates [1]; KY941937.1 (MDR 2)) was “S” and the “Antibiotic Susceptibility testing” value (MDR-EAEC isolates [1]; KY941938.1 (MDR 3)) was “R”.

Colistin sulphate was tested, and the “Antibiotic Susceptibility testing” value (MDR-EAEC isolates [1]; KY941936.1 (MDR 1)) was “S”, the “MIC Values (mg/L), given as class symbol” value (MDR-EAEC isolates [1]; KY941936.1 (MDR 1)) was “S” and the “Antibiotic Susceptibility testing” value (MDR-EAEC isolates [1]; KY941937.1 (MDR 2)) was “S”. The “MIC Values (mg/L), given as class symbol” value (MDR-EAEC isolates [1]; KY941937.1 (MDR 2)) was “S”, the “Antibiotic Susceptibility testing” value (MDR-EAEC isolates [1]; KY941938.1 (MDR 3)) was “S” and the “MIC Values (mg/L), given as class symbol” value (MDR-EAEC isolates [1]; KY941938.1 (MDR 3)) was “S”.

For `O=C(O)c1cn(C2CC2)c2cc(N3CCNCC3)c(F)cc2c1=O` [CIP, Ciprofloxacin], the MIC (MDR-EAEC isolates [1]; KY941937.1 (MDR 2)) was 120 µg/mL (≈ 362 µM), the MIC (MDR-EAEC isolates [1]; KY941938.1 (MDR 3)) was 60 µg/mL (≈ 181 µM) and the “Antibiotic Susceptibility testing” value (MDR-EAEC isolates [1]; KY941936.1 (MDR 1)) was “S”. For the same compound, the “Antibiotic Susceptibility testing” value (MDR-EAEC isolates [1]; KY941937.1 (MDR 2)) was “R” and the “Antibiotic Susceptibility testing” value (MDR-EAEC isolates [1]; KY941938.1 (MDR 3)) was “R”.

For `CNC(C)C1CCC(N)C(OC2C(N)CC(N)C(OC3OCC(C)(O)C(NC)C3O)C2O)O1` (stereo not drawn) [GEN, Gentamicin], the “Antibiotic Susceptibility testing” value (MDR-EAEC isolates [1]; KY941936.1 (MDR 1)) was “S”, the “MIC Values (mg/L), given as class symbol” value (MDR-EAEC isolates [1]; KY941936.1 (MDR 1)) was “S” and the “Antibiotic Susceptibility testing” value (MDR-EAEC isolates [1]; KY941937.1 (MDR 2)) was “S”. The “MIC Values (mg/L), given as class symbol” value (MDR-EAEC isolates [1]; KY941937.1 (MDR 2)) was “S”, the “Antibiotic Susceptibility testing” value (MDR-EAEC isolates [1]; KY941938.1 (MDR 3)) was “S” and the “MIC Values (mg/L), given as class symbol” value (MDR-EAEC isolates [1]; KY941938.1 (MDR 3)) was “S”.

For `C[C@@H](O)[C@H]1C(=O)N2C(C(=O)O)=C(S[C@@H]3CN[C@H](C(=O)N(C)C)C3)[C@H](C)[C@H]12` [meropenem, reference compound], the “reduction in bacterial counts at 30 min post-coincubation” value (MDR-EAEC isolates [2]) was “highly significant (P < 0.001) reduction”, the “time post-coincubation after which complete inhibition” value (MDR-EAEC isolates [2]) was 60 min and the LDH cytotoxicity (G. mellonella larvae) was “Almost similar observations”. The survival rate [3] was 85%.

`CC1(C)S[C@@H]2[C@H](NC(=O)[C@H](N)c3ccccc3)C(=O)N2[C@H]1C(=O)O` [AMP, Ampicillin] gave an MIC (MDR-EAEC isolates [1]; KY941936.1 (MDR 1)) of over 240 µg/mL, an MIC (MDR-EAEC isolates [1]; KY941937.1 (MDR 2)) of over 240 µg/mL and an MIC (MDR-EAEC isolates [1]; KY941938.1 (MDR 3)) of over 240 µg/mL. The “Antibiotic Susceptibility testing” value (MDR-EAEC isolates [1]; KY941936.1 (MDR 1)) was “R”, the “Antibiotic Susceptibility testing” value (MDR-EAEC isolates [1]; KY941937.1 (MDR 2)) was “R” and the “Antibiotic Susceptibility testing” value (MDR-EAEC isolates [1]; KY941938.1 (MDR 3)) was “R”.

For `CO/N=C(\C(=O)N[C@@H]1C(=O)N2C(C(=O)O)=C(CSc3nc(=O)c(=O)[nH]n3C)CS[C@H]12)c1csc(N)n1` [CTR, Ceftriaxone], the MIC (MDR-EAEC isolates [1]; KY941937.1 (MDR 2)) was over 240 µg/mL, the MIC (MDR-EAEC isolates [1]; KY941938.1 (MDR 3)) was over 240 µg/mL and the “Antibiotic Susceptibility testing” value (MDR-EAEC isolates [1]; KY941936.1 (MDR 1)) was “S”. The “MIC Values (mg/L), given as class symbol” value (MDR-EAEC isolates [1]; KY941936.1 (MDR 1)) was “S”, the “Antibiotic Susceptibility testing” value (MDR-EAEC isolates [1]; KY941937.1 (MDR 2)) was “R” and the “Antibiotic Susceptibility testing” value (MDR-EAEC isolates [1]; KY941938.1 (MDR 3)) was “R”.

In the case of `O=C(N[C@H](CO)[C@H](O)c1ccc([N+](=O)[O-])cc1)C(Cl)Cl` [CL, Chloramphenicol], the “Antibiotic Susceptibility testing” value (MDR-EAEC isolates [1]; KY941936.1 (MDR 1)) is reported as “S”, the “MIC Values (mg/L), given as class symbol” value (MDR-EAEC isolates [1]; KY941936.1 (MDR 1)) is reported as “S” and the “Antibiotic Susceptibility testing” value (MDR-EAEC isolates [1]; KY941937.1 (MDR 2)) is reported as “S”. For the same compound, the “MIC Values (mg/L), given as class symbol” value (MDR-EAEC isolates [1]; KY941937.1 (MDR 2)) was “S”, the “Antibiotic Susceptibility testing” value (MDR-EAEC isolates [1]; KY941938.1 (MDR 3)) was “S” and the “MIC Values (mg/L), given as class symbol” value (MDR-EAEC isolates [1]; KY941938.1 (MDR 3)) was “S”.

Co-trimoxazole [COT] was tested, and the “Antibiotic Susceptibility testing” value (MDR-EAEC isolates [1]; KY941936.1 (MDR 1)) was “R”, the “MIC Values” (MDR-EAEC isolates [1]; KY941936.1 (MDR 1)) was over 240 mg/L and the “Antibiotic Susceptibility testing” value (MDR-EAEC isolates [1]; KY941937.1 (MDR 2)) was “R”. The “MIC Values” (MDR-EAEC isolates [1]; KY941937.1 (MDR 2)) was over 240 mg/L, the “Antibiotic Susceptibility testing” value (MDR-EAEC isolates [1]; KY941938.1 (MDR 3)) was “R” and the “MIC Values” (MDR-EAEC isolates [1]; KY941938.1 (MDR 3)) was over 240 mg/L.

With `CN(C)[C@@H]1C(O)=C(C(N)=O)C(=O)[C@@]2(O)C(O)=C3C(=O)c4c(O)cccc4[C@@](C)(O)[C@H]3C[C@@H]12` [TE, Tetracycline] the MIC (MDR-EAEC isolates [1]; KY941936.1 (MDR 1)) was 60 µg/mL (≈ 135 µM), the MIC (MDR-EAEC isolates [1]; KY941937.1 (MDR 2)) was 2 µg/mL (≈ 4.5 µM) and the MIC (MDR-EAEC isolates [1]; KY941938.1 (MDR 3)) was 30 µg/mL (≈ 67.5 µM). The “Antibiotic Susceptibility testing” value (MDR-EAEC isolates [1]; KY941936.1 (MDR 1)) was “R”, the “Antibiotic Susceptibility testing” value (MDR-EAEC isolates [1]; KY941937.1 (MDR 2)) was “R” and the “Antibiotic Susceptibility testing” value (MDR-EAEC isolates [1]; KY941938.1 (MDR 3)) was “R”.
